Laboratory results as given in patent US20170182090A1, “Sulfate Salt Solution Laxative Compositions and Methods of Use Thereof” (Braintree Laboratories, Inc., priority 2014, published 2017).
Read-outs that look alike come from different tables or passages of the source.

Tests used:
normal volunteers [1] = experiment: Single dose laxative study in normal volunteers (Example 1, Study 008-211): stool output, BM frequency, time to first BM, stool water; format: in vivo, human
Experimental: This single center study evaluated sulfate salt compositions containing 43.8 millimoles (mmol) sulfate salts (4.2 g total sulfate) or 80 mmol sulfate salts (7.7 g total sulfate) as compared to 10 mg bisacodyl for efficacy to induce a rapid, controlled bowel movement without significant gains or losses of electrolytes. Normal volunteers were given a single dose of laxative in an in-patient setting during which all stool and urine were collected for 24 hours after laxative administration. Efficacy was based on total stool output, bowel movement frequency and time to first bowel movement (BM). A time to first BM of less than three hours was considered ideal. Stool was analyzed to determine the gain or loss of electrolytes. Safety was assessed through the collection of adverse event data and analysis of urine electrolyte composition.
Normal male and female volunteers in this single center study were enrolled to receive a single dose of a sulfate laxative formulations or bisacodyl in an open-label, non-randomized fashion.
Enrolled study subjects received a single dose of a formulation of sulfate salts (dissolved in 120 ml water) and separately, 10 mg bisacodyl, in an open-label, non-randomized fashion. The sulfate preparations, shown below, were compounded by the investigator.
After an eight hour (overnight) fast, study subjects ingested either a single dose of sulfate laxative (containing sodium sulfate and potassium sulfate) or, on a different day, bisacodyl. Sulfate was initially given with a 1:1 molar ratio sodium to potassium at a dose of 43.8 mmole sulfate salts (4.2 g total sulfate) sulfate to three study subjects. The dose was later increased to 80 mmole sulfate salts (7.7 g total sulfate) in one study subject. The 80 mmol sulfate salt formulation was then changed to a 3:1 sodium to potassium molar ratio for the final five study subjects. Bisacodyl was given at a dose of 10 mg.
Stool and urine were collected for 24 hours following laxative ingestion.
(§1) Efficacy was assessed via quantitative measurements of stool weight, bowel movement frequency and time to first BM. All stools were collected, weighed and subsequently analyzed for water and electrolyte composition.

normal volunteers [2] = experiment: Stool electrolyte output and balance, Example 1; format: in vivo, human; conditions: bisacodyl 10 mg
Experimental: as §1
(§2) Laxative related adverse events were assessed via subject completion of a study specific questionnaire. Specifically, subjects rated their experience with respect to abdominal cramping, abdominal bloating, abdominal pain, gas, nausea, and vomiting. Stool was analyzed for water and electrolyte composition.
Stools collected from study subjects were analyzed for sodium, potassium and sulfate. The data for the 80 mmol sulfate salt formulation and 10 mg bisacodyl are discussed here. The total electrolyte content of the stool was compared with the total electrolyte quantity ingested from the test preparations.
The 80 mmol sulfate salt formulation was administered initially as a formula with a 1:1 sodium to potassium ratio on a molar basis (1 study subject; DC). Based on the stool analysis results from this subject (see below) the formulation was modified to a 3:1 sodium to potassium ratio for the remaining 5 study subjects. Stool electrolyte balance results are summarized below in Tables 6 and 7.

normal volunteers [3] = experiment: Adverse events and symptoms, Example 1; format: in vivo, human; conditions: bisacodyl 10 mg single dose
Experimental: as §2

normal volunteers [4] = conditions: bisacodyl 20 mg, n=11, cited from earlier work
constipation = conditions: in vivo; cited from earlier work
[5] = bisacodyl 10 mg single dose, mean, n=7
[6] = bisacodyl 10 mg single dose, n=7
[7] = bisacodyl 10 mg, 24 hours following laxative ingestion

## CC(=O)Oc1ccc(C(c2ccc(OC(C)=O)cc2)c2ccccn2)cc1 [Bisacodyl]
Normal volunteers [1]; bisacodyl 10 mg single dose, mean (SD), n=7
  Stool Water: 85.8% (2.4)
Normal volunteers [1]; [5]
  BM Frequency: 2.9 #/12 hrs
  Stool Output: 681 g/12 hrs
  Time to first BM: 4.4 h
Normal volunteers [1]; bisacodyl 10 mg single dose, mean, n=7, listed as bisacodyl
  Time to first BM: about 5 hrs
Normal volunteers [1]; [6]
  Subjects with BM <3 hrs, number: 1
  Subjects with BM <3 hrs, percent: (14%)
Normal volunteers [1]; bisacodyl 10 mg single dose, n=7, listed as bisacodyl
  Subjects with BM <3 hrs, percent: 14%
Normal volunteers [1]; [7]
  bowel movements, average: about 3
  stool, average: ~700 grams
Normal volunteers [2]
  potassium loss: about 2 grams
  sodium losses: 1.2 grams
Normal volunteers [3]
  adverse events, gastrointestinal symptoms: one bisacodyl volunteer reported severe cramping
Normal volunteers [4]; mean
  BM Frequency: 5.4 #/12hrs
  Stool Output: 757 g/12hrs
  Time to first BM: 3.2 h
Normal volunteers [4]
  # with BM <3 hrs, number: 5
  # with BM <3 hrs, percent: (45%)
Normal volunteers [4]; listed as bisacodyl
  # with BM <3 hrs, percent: 45%

## C=CCN1CC[C@]23c4c5ccc(O)c4O[C@H]2[C@@H](OCCOCCOCCOCCOCCOCCOCCOC)CC[C@@]3(O)[C@H]1C5.O=C(O)C(=O)O [Movantik]
constipation
  success rate: approximately 45%

## CCCCC(F)(F)[C@@]1(O)CC[C@H]2[C@@H](CC(=O)[C@@H]2CCCCCCC(=O)O)O1 [Amitiza]
constipation
  success rate: 30%

## C[N+]1(CC2CC2)CC[C@]23c4c5ccc(O)c4O[C@H]2C(=O)CC[C@@]3(O)[C@H]1C5 (stereo partly shown) [Relistor]
constipation
  success rate: 60%
